We go through two molecules from PMC10691846 (Protein & Cell, 2023).

One assay addresses T1, EcCydDC (Escherichia coli, UniProt P23886+P29018).
T1 construct: gene cydC; purified CydC-CydD heterodimer
The experiment in a line: cryo-EM structure of the complex. As to conditions: ATP-bound occluded state. Type of assay: binding.

Assay [1] concerns the target T2, MsCydDC (Mycolicibacterium smegmatis, UniProt A0QXA6+A4ZHS8).
T2 construct: gene MSMEG3240; purified CydC-CydD heterodimer
The experiment in a line: ATPase activity assay. As to conditions: Arg326 of CydC Linking-beta2 Loop sandwiches the adenosine ring at the CydC NBD. The assay is classed as biochemical.

The target of assay [2] is T2, MsCydDC. The experiment in a line: ATPase activity assay. The assay is classed as biochemical. As to conditions: Arg85 of CydD ICL1 stabilizes the adenosine ring at the CydD NBD.
The target in assay [3] is T2, MsCydDC. Description: cryo-EM structure of the complex. The assay is classed as binding. The settings on record: Mg2+; ATP in the NBDs of CydC and CydD; outward-facing state.
In assay [4] the target is T2, MsCydDC. Description: ATPase activity assay. Type of assay: biochemical. As to conditions: Arg324 of CydC Linking-beta2 Loop sandwiches the adenosine ring at the CydC NBD.
A further assay addresses T3, Escherichia coli CydD (Escherichia coli, UniProt P29018 1-588).
T3 construct: CydD, subunit of the ABC transporter CydDC of Escherichia coli; also called EcCydD; source: purified as the EcCydDC complex
T3 sequence: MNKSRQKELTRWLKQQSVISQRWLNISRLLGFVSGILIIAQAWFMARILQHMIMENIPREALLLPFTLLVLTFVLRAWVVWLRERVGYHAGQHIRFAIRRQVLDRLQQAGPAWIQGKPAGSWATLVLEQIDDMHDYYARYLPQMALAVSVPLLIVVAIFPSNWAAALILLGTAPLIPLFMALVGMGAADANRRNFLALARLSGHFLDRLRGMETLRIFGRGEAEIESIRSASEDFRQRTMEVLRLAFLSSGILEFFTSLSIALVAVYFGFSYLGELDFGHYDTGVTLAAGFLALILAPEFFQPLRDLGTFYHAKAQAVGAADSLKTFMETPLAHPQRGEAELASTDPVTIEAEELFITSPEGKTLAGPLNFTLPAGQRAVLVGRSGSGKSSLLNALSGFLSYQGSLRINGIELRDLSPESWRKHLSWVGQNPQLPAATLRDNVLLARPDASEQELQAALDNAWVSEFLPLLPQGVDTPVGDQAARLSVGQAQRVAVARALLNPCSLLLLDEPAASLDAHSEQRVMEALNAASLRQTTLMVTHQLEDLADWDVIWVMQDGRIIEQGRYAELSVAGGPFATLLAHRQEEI
Description: cryo-EM structure; purified CydDC complexes; MsCydDC in apo and ATP-bound states, EcCydDC in heme-loading and ATP-bound states. The settings on record: both partners purified.

T2 sequence (A0QXA6 entry or part of it): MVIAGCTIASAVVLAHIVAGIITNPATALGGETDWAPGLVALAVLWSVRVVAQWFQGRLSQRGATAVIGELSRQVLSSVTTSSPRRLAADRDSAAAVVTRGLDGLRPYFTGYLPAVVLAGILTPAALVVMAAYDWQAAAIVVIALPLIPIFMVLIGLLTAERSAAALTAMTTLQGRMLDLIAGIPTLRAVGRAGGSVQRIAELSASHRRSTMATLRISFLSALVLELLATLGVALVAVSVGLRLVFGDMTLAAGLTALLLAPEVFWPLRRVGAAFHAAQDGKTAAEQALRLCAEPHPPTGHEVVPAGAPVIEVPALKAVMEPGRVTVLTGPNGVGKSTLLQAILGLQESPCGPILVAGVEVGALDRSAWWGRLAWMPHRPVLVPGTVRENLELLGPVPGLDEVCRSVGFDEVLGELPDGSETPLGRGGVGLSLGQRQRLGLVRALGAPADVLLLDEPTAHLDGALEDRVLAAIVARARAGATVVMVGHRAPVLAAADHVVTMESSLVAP
T2 sequence (A4ZHS8 entry or part of it): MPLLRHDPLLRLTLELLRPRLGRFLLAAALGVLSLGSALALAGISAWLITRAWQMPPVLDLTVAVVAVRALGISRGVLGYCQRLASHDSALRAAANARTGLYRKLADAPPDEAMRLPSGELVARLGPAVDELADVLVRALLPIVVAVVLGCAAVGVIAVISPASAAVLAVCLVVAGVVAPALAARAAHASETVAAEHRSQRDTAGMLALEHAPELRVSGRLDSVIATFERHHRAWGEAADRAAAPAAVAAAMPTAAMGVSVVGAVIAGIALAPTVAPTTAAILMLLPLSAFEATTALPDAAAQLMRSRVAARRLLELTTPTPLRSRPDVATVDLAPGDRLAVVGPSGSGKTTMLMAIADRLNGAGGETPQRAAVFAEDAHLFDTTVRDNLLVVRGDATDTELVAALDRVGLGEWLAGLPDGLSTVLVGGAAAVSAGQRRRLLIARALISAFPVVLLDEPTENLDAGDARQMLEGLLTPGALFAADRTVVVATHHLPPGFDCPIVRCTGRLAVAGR

Take `Nc1ncnc2c1ncn2[C@@H]1O[C@H](COP(=O)(O)OP(=O)(O)OP(=O)(O)O)[C@@H](O)[C@H]1O` [ATP]: the “cryo-EM structure of the complex” value at EcCydDC is given as “We then determined the Cryo-EM structures of CydDC from Msm or E. coli”; on MsCydDC [3], “the adenosine ring of ATP is stabilized by the sidechain of Arg85 from ICL1”. In addition, the ATPase activity result on MsCydDC [1], on MsCydDC [2] and at MsCydDC [4] was “a single mutation of any of these Arg residues significantly affected the ATPase activity” each time.

B1: Escherichia coli CydC (natural protein)
chain: MRALLPYLALYKRHKWMLSLGIVLAIVTLLASIGLLTLSGWFLSASAVAGVAGLYSFNYMLPAAGVRGAAITRTAGRYFERLVSHDATFRVLQHLRIYTFSKLLPLSPAGLARYRQGELLNRVVADVDTLDHLYLRVISPLVGAFVVIMVVTIGLSFLDFTLAFTLGGIMLLTLFLMPPLFYRAGKSTGQNLTHLRGQYRQQLTAWLQGQAELTIFGASDRYRTQLENTEIQWLEAQRRQSELTALSQAIMLLIGALAVILMLWMASGGVGGNAQPGALIALFVFCALAAFEALAPVTGAFQHLGQVIASAVRISDLTDQKPEVTFPDTQTRVADRVSLTLRDVQFTYPEQSQQALKGISLQVNAGEHIAILGRTGCGKSTLLQQLTRAWDPQQGEILLNDSPIASLNEAALRQTISVVPQRVHLFSATLRDNLLLASPGSSDEALSEILRRVGLEKLLEDAGLNSWLGEGGRQLSGGELRRLAIARALLHDAPLVLLDEPTEGLDATTESQILELLAEMMREKTVLMVTHRLRGLSRFQQIIVMDNGQIIEQGTHAELLARQGRYYQFKQGL
notes: CydC, subunit of the ABC transporter CydDC of Escherichia coli; also called EcCydC; source: purified as the EcCydDC complex
With B1, the binding result in the assay with Escherichia coli CydD was “binds”.
